Data as given in patent US9029332B2, “Cross-linked peptides and proteins, methods of making same, and uses thereof” (The Research Foundation for The State University of New York, priority 2010, dated 2015).
Values belong to the compound of their own block, whether it stands above or below them. Numbered stars: 1 amine (or outer) side, 2 acyl side, 3 side chain; on linkers, the order of the positions; unused ones are H or OH. Bridge positions count the residues as written; N and C are the ends. Square brackets hold non-standard residues; d marks the D form. Ends that are not written are not given here. Peptide text beside a SMILES is read from it. BMA = bismethylene aryl moiety linked through two thioether bonds; CH2(3,3'-bipyridine-6,6')CH2 = c1cc(C[*:1])ncc1-c1ccc(C[*:2])nc1; Biphenyl(4,4'-CH2)2 = c1cc(-c2ccc(C[*:2])cc2)ccc1C[*:1]

Legend:
GST-Bcl-xL = GST-Bcl-xL (Homo sapiens, UniProt Q07817); assay: FP binding affinity of fluorescein-labeled peptides, Bcl-xL
Chain of GST-Bcl-xL (Q07817 whole entry): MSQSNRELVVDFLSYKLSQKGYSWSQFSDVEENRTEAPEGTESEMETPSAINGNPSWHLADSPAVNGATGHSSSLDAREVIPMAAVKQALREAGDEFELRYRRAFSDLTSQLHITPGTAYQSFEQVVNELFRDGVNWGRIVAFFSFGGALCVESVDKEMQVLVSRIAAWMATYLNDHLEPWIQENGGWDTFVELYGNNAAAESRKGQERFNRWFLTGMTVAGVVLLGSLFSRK

HeLa cells [1] = assay: FACS analysis of cell permeability of fluorescein-conjugated peptides; assay type: cell-based; conditions: 10 μM fluorescein-conjugated peptide, 2 h
Experimental: FACS Analysis. HeLa Cells were cultured in DMEM medium supplemented with 10% fetal bovine serum in 6-well plate in a 37° C., 5% CO2 incubator to reach confluency of around 70%. The cells were then washed twice with PBS before switching to serum-free DMEM medium. After standing in the incubator for 30 minutes, appropriate amounts of peptides (1 mM in DMSO) were added to the culture plate to obtain a final peptide concentration of 10 μM. Cells were incubated at 37° C. for additional 2 hrs. Then the medium was removed and the cells were washed with PBS (3×) followed by treatment with trypsin to detach the cells. After a brief low-speed centrifugation, the HeLa cells were collected and re-suspended in PBS for the FACS analysis.

HeLa cells [2] = assay: Cell viability assay (CellTiter-Glo, ATP) and DIC imaging, cytotoxicity; assay type: cell-based; conditions: 10 μM, 2 hours; DIC channel and ATP assay
Experimental: FIG. 8. (a) Confocal images of fixed HeLa cells after treatment with 10 μM of fluorescein-conjugated peptides for 2 hours. Scale bar=50 μm. (b) Cell viability assay using the CellTiter-Glo reagent.
Cell Viability Assay. HeLa cells were seeded into an opaque 96-well plate at a density of 1×10^4 per well in 100 μL DMEM medium supplemented with 10% FBS and the cells were allowed to grow in a 37° C. 5% CO2 incubator for 48 hrs to reach confluency of around 80%. Prior to the compound treatment, the medium was replaced with serum-free medium and the cells were incubated for 30 minutes. Appropriate amounts of peptides (1 mM in DMSO) were then added to obtain a final concentration of 10 μM and the cells were incubated at 37° C. for 2 hours. Afterwards, the plate was allowed to stand at room temperature for 30 minutes before 100 μL of Cell-Titer Glow reagent (Promega) was added. The plate was incubated at room temperature for 10 minutes. The luminescence signals were recorded with an FLX 800 luminescence plate reader (BioTek). The plotted data represented the average of the readings from 4 separate wells.

[3] = biological target: T1, full-length human MDMX (GST-MDMX) (Homo sapiens, UniProt O15151); assay: ELISA, inhibition of p53-MDMX interaction; assay type: binding; conditions: relative to linear counterpart 3
T1 construct: GST-MDM2 and GST-MDMX containing full-length human MDM2 and MDMX; made in house; host or cells: Escherichia coli
T1 sequence (O15151 1-490): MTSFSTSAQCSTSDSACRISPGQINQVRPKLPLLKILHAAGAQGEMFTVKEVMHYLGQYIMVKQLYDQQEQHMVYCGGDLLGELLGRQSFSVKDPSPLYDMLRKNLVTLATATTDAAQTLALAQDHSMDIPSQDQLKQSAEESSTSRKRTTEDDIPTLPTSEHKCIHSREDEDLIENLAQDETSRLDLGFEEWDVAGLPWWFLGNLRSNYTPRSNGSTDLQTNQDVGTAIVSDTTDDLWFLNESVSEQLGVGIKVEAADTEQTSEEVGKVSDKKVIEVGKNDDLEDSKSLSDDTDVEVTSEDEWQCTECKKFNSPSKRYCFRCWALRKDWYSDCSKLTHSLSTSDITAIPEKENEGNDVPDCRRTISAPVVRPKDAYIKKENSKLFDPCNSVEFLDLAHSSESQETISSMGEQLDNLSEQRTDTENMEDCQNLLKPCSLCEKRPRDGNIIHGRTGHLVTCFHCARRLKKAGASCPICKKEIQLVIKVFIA
Text: FIG. 10. ELISA data of the cross-linked PDI analogs. The experiments were repeated three times and the resulting data were plotted with GraphPad Prism 5.0 to derive the average IC50 values along with standard deviations.
ELISA Assay. GST-MDM2 and GST-MDMX containing full-length human MDM2 and MDMX and His6-tagged human p53 were expressed in Escherichia coli and purified by glutathione agarose and Ni^2+-nitrilotriacetic acid beads, respectively, under non-denaturing conditions. Microtiter plates were coated with 2.5 μg/ml His6-p53 in PBS buffer for 16 hours. After washing with PBS containing 0.1% Tween-20 (PBST), the plates were blocked with PBST containing 5% nonfat dry milk (PBSTM) for 30 minutes. Peptides were dissolved in DMSO. GST-MDM2 and MDMX (5 μg/ml) were mixed with peptides in PBSMT containing 10% glycerol and 10 mM dithiolthreitol prior to their additions to the wells at the specified concentrations. The incubation was allowed to proceed for 1 hour at room temperature before the plates were washed with PBST. […] The plates were developed by incubation with TMB peroxidase substrate (KPL, Gaithersburg, Md.) and measured by absorbance at 450 nm. The data was analyzed with the Origin 6.0 software. […]

GST-Mcl-1 = GST-Mcl-1 (Homo sapiens, UniProt Q07820); assay: Competitive fluorescence polarization assay; assay type: binding; conditions: for IC50: Noxa peptides, three repeats ± SD, read-out: FP, IC50
Chain of GST-Mcl-1 (Q07820 whole entry): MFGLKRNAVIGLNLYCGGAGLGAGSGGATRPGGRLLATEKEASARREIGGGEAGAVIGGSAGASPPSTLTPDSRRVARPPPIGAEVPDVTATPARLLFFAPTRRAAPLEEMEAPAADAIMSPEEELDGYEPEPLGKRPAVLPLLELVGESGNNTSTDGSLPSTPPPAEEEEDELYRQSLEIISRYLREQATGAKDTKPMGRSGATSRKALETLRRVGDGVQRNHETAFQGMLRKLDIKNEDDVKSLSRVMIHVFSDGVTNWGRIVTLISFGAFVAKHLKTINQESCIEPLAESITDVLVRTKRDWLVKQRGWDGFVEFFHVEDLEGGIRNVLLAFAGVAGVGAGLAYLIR
Experimental: Competitive Florescence Polarization Assay. The binding affinity of the Noxa peptides toward GST-Mcl-1 was determined in a competitive fluorescence polarization assay with the fluorescein-labeled Bak or Bim. Briefly, fluorescein-labeled Bak was incubated with GST-Mcl-1 in a binding buffer (PBS, 0.005% Tween-20, pH7.4) at room temperature in a 96-well microtiter plate. […] The reading was repeated at various time points to ensure that the competition has reached equilibrium.

Mcl-1 [4] = biological target: Mcl-1 (Homo sapiens, UniProt Q07820); assay: ELISA of cross-linked Noxa peptides; assay type: binding
Chain of Mcl-1 (Homo sapiens, UniProt Q07820) (Q07820 whole entry, species assumed): as the sequence (Q07820 whole entry) above

[5] = Circular dichroism, percent helicity; assay type: physicochemical; conditions: compared to the linear NoxaBH3 peptide, 50 μM in 20% ACN/H2O
Experimental: FIG. 12. […] The peptides were dissolved in 20% ACN/H2O for a final concentration of 50 μM.
Circular Dichroism Study. […] The spectra were recorded in the wavelength range of 190-250 nm and averaged over 3 scans with a resolution of 0.5 nm, a bandwidth of 1.0 nm and a response time of 4 s. The sensitivity and the speed of the spectrometer were set to 100 mdeg and 50 nm/min, respectively. All peptides were dissolved in 20% acetonitrile/H2O to reach final concentration of 50 μM.

chymotrypsin = chymotrypsin (Bos taurus, UniProt P00766); assay: Chymotrypsin proteolytic stability assay; conditions: cattle (bovine), chymotrypsin (Type II, Sigma) in NH4HCO3 buffer, pH 8
Experimental: Proteolytic stability of the linear and stapled Noxa peptides against trypsin (Type IX-S, 13,000-20,000 unit/mg, Sigma) and chymotrypsin (Type II, 40 unit/mg, Sigma). To a solution of 400 μL of 0.25 mM peptide in NH4HCO3 buffer, pH 8.0, was added 80 μL trypsin (5 μg/mL) or chymotrypsin (25 μg/mL), and the resulting solution was incubated at 37° C. At the indicated times, 40 μL of the solution was transferred to 40 μL trifluoroacetic acid to quench the reaction. The samples were analyzed by reverse-phase HPLC using benzophenone as an injection control.

Mcl-1 [6] = biological target: Mcl-1 (Mus musculus, UniProt P97287); conditions: background literature; read-out: IC50 against Mcl-1; cited from earlier work
Chain of Mcl-1 (Mus musculus, UniProt P97287) (P97287 152-308 limits assumed): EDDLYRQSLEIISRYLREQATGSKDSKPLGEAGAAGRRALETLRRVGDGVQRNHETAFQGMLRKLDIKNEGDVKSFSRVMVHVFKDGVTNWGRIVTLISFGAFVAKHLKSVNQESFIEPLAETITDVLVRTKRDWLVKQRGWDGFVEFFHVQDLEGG

Compound: CC[C@H](C)[C@H](NC(=O)[C@H](CCCNC(=N)N)NC(=O)[C@H](CCCNC(=N)N)NC(=O)[C@H](CC(C)C)NC(=O)[C@H](CCC(N)=O)NC(=O)[C@H](C)NC(=O)[C@H](C)NC(=O)CCCCCNC(=S)Nc1ccc2c(c1)C(=O)OC21c2ccc(O)cc2Oc2cc(O)ccc21)C(=O)NCC(=O)N[C@@H](CC(=O)O)C(=O)N[C@@H](CCCCN)C(=O)N[C@H](C(=O)N[C@@H](CC(N)=O)C(=O)N[C@@H](CC(C)C)C(=O)N[C@@H](CCCNC(=N)N)C(=O)N[C@@H](CCC(N)=O)C(=O)N[C@@H](CCCCN)C(=O)N[C@@H](CC(C)C)C(=O)N[C@@H](CC(C)C)C(=O)N[C@@H](CC(N)=O)C(N)=O)C(C)C [Fl-NoxaB^75-93-C75A]
Kd (GST-Bcl-xL): > 2000 nM

Compound: CC(=O)N[C@@H](CC(C)C)C(=O)N[C@H](C(=O)N[C@@H](Cc1ccccc1)C(=O)N[C@@H](CS)C(=O)N[C@@H](Cc1c[nH]cn1)C(=O)N[C@@H](Cc1ccc(O)cc1)C(=O)N[C@@H](Cc1c[nH]c2ccccc12)C(=O)N[C@@H](C)C(=O)N[C@@H](CCC(N)=O)C(=O)N[C@@H](CC(C)C)C(=O)N[C@@H](CS)C(=O)N[C@@H](CO)C(N)=O)[C@@H](C)O [Peptide 1] (Ac-LTFCHYWAQLCS-NH2)
cell penetration (HeLa cells [1]; relative to DMSO control): minimal cell penetration

Compound: CC(=O)N[C@@H](CC(C)C)C(=O)N[C@H](C(=O)N[C@@H](Cc1ccccc1)C(=O)N[C@H]1CSCc2ccc(cn2)-c2ccc(nc2)CSC[C@@H](C(=O)N[C@@H](CO)C(N)=O)NC(=O)[C@H](CC(C)C)NC(=O)[C@H](CCC(N)=O)NC(=O)[C@H](C)NC(=O)[C@H](Cc2c[nH]c3ccccc23)NC(=O)[C@H](Cc2ccc(O)cc2)NC(=O)[C@H](Cc2c[nH]cn2)NC1=O)[C@@H](C)O [Peptide 1b, LTFC″HYWAQLC″S] (Ac-LTFCHYWAQLCS-NH2; linker 4-11 via CH2(3,3'-bipyridine-6,6')CH2; C-terminus assumed)
cytotoxicity (HeLa cells [2]): did not show any cytotoxicity | increase in mean fluorescence by Bpy cross-linking (HeLa cells [1]; over linear counterpart): ~6 fold

increase in MDMX activity [3]: 15 fold
Compound: CC(=O)N[C@@H](CC(C)C)C(=O)N[C@H](C(=O)N[C@@H](Cc1ccccc1)C(=O)N[C@@H]1CSCc2ccc(cc2)-c2ccc(cc2)CSC[C@@H](C(=O)N[C@@H](CO)C(N)=O)NC(=O)[C@H](CC(C)C)NC(=O)[C@H](CCC(N)=O)NC(=O)[C@H](C)NC(=O)[C@H](Cc2c[nH]c3ccccc23)NC(=O)[C@H](Cc2ccc(O)cc2)NC(=O)[C@H](Cc2c[nH]cn2)NC1=O)[C@@H](C)O [Peptide 3a, LTFc′HYWAQLC′S] (Ac-LTF[dC]HYWAQLCS-NH2; linker 4-11 via Biphenyl(4,4'-CH2)2)

increase in MDMX activity [3]: 24 fold
Compound: CC(=O)N[C@@H](CC(C)C)C(=O)N[C@H](C(=O)N[C@@H](Cc1ccccc1)C(=O)N[C@@H]1CSCc2ccc(cn2)-c2ccc(nc2)CSC[C@@H](C(=O)N[C@@H](CO)C(N)=O)NC(=O)[C@H](CC(C)C)NC(=O)[C@H](CCC(N)=O)NC(=O)[C@H](C)NC(=O)[C@H](Cc2c[nH]c3ccccc23)NC(=O)[C@H](Cc2ccc(O)cc2)NC(=O)[C@H](Cc2c[nH]cn2)NC1=O)[C@@H](C)O [Peptide 3b, LTFc″HYWAQLC″S] (Ac-LTF[dC]HYWAQLCS-NH2; linker 4-11 via CH2(3,3'-bipyridine-6,6')CH2)
cytotoxicity (HeLa cells [2]): did not show any cytotoxicity

IC50 (GST-Mcl-1): 18 ± 6 nM | increase in activity in FPA (GST-Mcl-1; compared to the parent linear peptide): 67 fold | IC50 (Mcl-1 [4]): 75 nM | enhancement in percent helicity [5]: roughly 2 fold
Compound: CC[C@H](C)[C@@H]1NC(=O)[C@H](CCCNC(=N)N)NC(=O)[C@H](CCCNC(=N)N)NC(=O)[C@H](CC(C)C)NC(=O)[C@@H](NC(=O)[C@H](C)NC(=O)[C@H](C)NC(C)=O)CSCc2ccc(cc2)-c2ccc(cc2)CSC[C@@H](C(=O)N[C@H](C(=O)N[C@@H](CC(N)=O)C(=O)N[C@@H](CC(C)C)C(=O)N[C@@H](CCCNC(=N)N)C(=O)N[C@@H](CCC(N)=O)C(=O)N[C@@H](CCCCN)C(=O)N[C@@H](CC(C)C)C(=O)N[C@@H](CC(C)C)C(=O)N[C@@H](CC(N)=O)C(N)=O)C(C)C)NC(=O)[C@H](CC(=O)O)NC(=O)CNC1=O [Peptide 5a]

half-life at 0.208 mM (chymotrypsin): 22 min | IC50 (GST-Mcl-1): 45 ± 9 nM | IC50 (Mcl-1 [4]): 25 nM | enhancement in percent helicity [5]: roughly 2 fold
Compound: CC[C@H](C)[C@@H]1NC(=O)[C@H](CCCNC(=N)N)NC(=O)[C@H](CCCNC(=N)N)NC(=O)[C@H](CC(C)C)NC(=O)[C@@H](NC(=O)[C@H](C)NC(=O)[C@H](C)NC(C)=O)CSCc2ccc(cn2)-c2ccc(nc2)CSC[C@@H](C(=O)N[C@H](C(=O)N[C@@H](CC(N)=O)C(=O)N[C@@H](CC(C)C)C(=O)N[C@@H](CCCNC(=N)N)C(=O)N[C@@H](CCC(N)=O)C(=O)N[C@@H](CCCCN)C(=O)N[C@@H](CC(C)C)C(=O)N[C@@H](CC(C)C)C(=O)N[C@@H](CC(N)=O)C(N)=O)C(C)C)NC(=O)[C@H](CC(=O)O)NC(=O)CNC1=O [Peptide 5b]

Compound: LTFCRYWARLCS (LTFCRYWARLCS-NH2; linker 4-11 via BMA (inferred); not fully specified) [Peptide 2, linear arginine-substituted dicysteine PDI analog]
increase in mean fluorescence / permeability by arginine substitution (HeLa cells [1]; compared to charge-neutral counterpart): 2.5 fold

Compound: NoxaA-(16-41): BH3 peptide derived from mouse Noxa (RAELPPEFAAQLRKIGDKVYCTWSAP; UniProt Q9JM54 16-41, looked up, fragment)
IC50 (Mcl-1 [6]): 87 nM

Compound: NoxaB-(68-93): BH3 peptide derived from mouse Noxa (PADLKDECAQLRRIGDKVNLRQKLLN; UniProt Q9JM54 68-93, looked up, fragment)
IC50 (Mcl-1 [6]): 109 nM
